The source of these data is PubChem BioAssay AID179 (DTP/NCI, 2004).

The subject of the assay is CEM cells HIV-1 protection, formazan growth assay. In words: NCI AIDS Antiviral Assay. The note with it: for IC50: measured here: growth of uninfected CEM cells. The method, boiled down:
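Protection of CEM cells against HIV-1 was scored from cell growth (soluble formazan) across five concentrations, with parallel uninfected cells. Lack of protection may reflect toxicity.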

SMILES strings stand for the structures. The source made the active and inactive calls.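 Rule for the calls: active = compounds giving half or more protection of infected cells from virus-caused growth loss, again on retest; inactive = the rest.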 Where a SMILES comes first, the peptide text is derived from it. Some results are limits rather than exact numbers.

For `Nc1cnn2nnnc2c1Cl`, the EC50 – broadly, the concentration giving half of the maximal effect – is over 200 µM and the IC50 (as a rule, the midpoint of a concentration-inhibition curve) is over 200 µM.
As for `CC(C)CC(NC(=O)C(Cc1cnc[nH]1)NC(=O)C(CC(N)=O)NC(=O)C(NC(=O)C(CO)NC(=O)C(Cc1ccc(O)cc1)NC(=O)C(CO)NC(=O)C(C)NC(=O)C(CCCCN)NC(=O)C(N)CC(=O)O)C(C)O)C(=O)O` (stereo not drawn) (H-DKASYSTNHL-OH; configuration not given here), the EC50 was over 55 µM and the IC50 is over 55 µM.
As for `COc1ccc(N2C(=O)C3c4[nH]c5ccccc5c4C4C(C)CCCC4C3C2=O)cc1` (stereo not drawn), the EC50 was over 200 µM and the concentration for half-maximal inhibition (IC50) stood at 8.13 µM.
For the compound `O=Cc1ccccc1OCCOc1cc(OCCOc2ccccc2C=O)c(OCCOc2ccccc2C=O)cc1OCCOc1ccccc1C=O`, the EC50 was over 1.41 µM and the IC50 was over 1.41 µM.
As for `Cc1sccc1C(=S)Nc1ccc(Cl)c(/C=N/OC(C)(C)C)c1`, the concentration for a half-maximal effect (EC50) was 14.1 µM and the 50% inhibitory concentration (IC50) was 14.8 µM.
On to `NCC1(N2CCOCC2)C2CCCC21CO` (stereo not drawn), for which the EC50 is over 1100 µM and the concentration for half-maximal inhibition (IC50) was over 1100 µM.
As for `CN(C(=O)C12C3C4C1C1C2C3C41C(=O)C(C)(C)C)C(C)(C)C` (stereo not drawn), the EC50 is over 6.61 µM and the IC50 is over 6.61 µM.
As to `O=c1oc2c(-c3ccccc3)n[nH]c(=O)c2c2c1CCCC2`, the EC50 is over 170 µM and the IC50 was over 170 µM.
For `O=C1Nc2ccccc2Sc2ccccc21`, the EC50 is 93.3 µM and the concentration for half-maximal inhibition (IC50) was determined as 115 µM.
Consider `CC(CCc1ccc2c(c1)c(=N)c1ccc(N)cc1n2O)CC(C)(C)C` (stereo not drawn), for which the result was inactive.
Consider `CC12c3ccccc3C(OC=O)(c3ccccc31)C1(C)c3ccccc3C2(OC=O)c2ccccc21`, for which the EC50 is over 3.09 µM and the half-maximal inhibitory concentration (IC50) was over 3.09 µM.
For the compound `Br/C=C(\Br)C[N+]12CN3CN(CN(C3)C1)C2`, the EC50 was over 200 µM and the 50% inhibitory concentration (IC50) was 110 µM.
Consider `Cc1ccsc1/C=N/Nc1nncc2ccccc12`, for which the EC50 was over 200 µM and the IC50 turned out to be 25.1 µM.
On the same counts, the results for `CC1=Nc2ccc(C)cc2N=C(C)C1` are over 200 µM and over 200 µM.
Consider `COc1ccc2cc1Oc1ccc(cc1)CC1c3cc4c(cc3CCN1C)Oc1c(OC)cc3c(c1O4)C(C2)N(C)CC3` (stereo not drawn), for which the result was inactive.
Consider `COC(=O)c1nn(-c2ccc(Cl)cc2)c2nc3ccccc3c-2c1C(=O)OC`, for which the EC50 is over 32.4 µM and the half-maximal inhibitory concentration (IC50) is over 32.4 µM.
For `CC(=O)OC[C@]12[C@H](OC(C)=O)[C@H](OC(C)=O)[C@@H]3C(OC(C)=O)[C@@]14OC3(C)COC(=O)c1cccnc1CCC(C)C(=O)OC([C@H](O)[C@@H]2OC(=O)c1ccccc1)[C@]4(C)O` (stereo partly drawn), the outcome was inactive.
In the case of `Cc1cc(Cl)c(=O)n(-c2ccccc2)n1`, the EC50 is over 162 µM and the 50% inhibitory concentration (IC50) is over 162 µM.
As for `COc1cc2c(c([N+](=O)[O-])c1)NC(=O)CCS2`, the result was inactive.
For `COc1ccc2c(c1)[nH]c1c(C)c3ccncc3c(C)c12`, the EC50 is over 200 µM and the IC50 worked out at 0.112 µM.
For the compound `Cc1nc2c(=O)n3c4c(cccc4c2o1)CCC3`, the EC50 was over 200 µM and the half-inhibitory concentration (IC50) stood at 107 µM.
Regarding `CC(/C=C/c1ccccc1)=N\N=C(C)\C=C\c1ccccc1`, the EC50 was over 13.2 µM and the IC50 is over 13.2 µM.
Consider `Cc1ccccc1Nc1cn(CCOc2ccccc2)c(=O)n(CCOc2ccccc2)c1=O`, for which the EC50 is over 200 µM and the IC50 was over 200 µM.
As to `COc1ccc(CCn2cnc3ccccc32)cc1`, the EC50 was over 200 µM and the IC50 is over 200 µM.
Consider `C=C[C@]1(O)CCC[C@]2(C)C(=O)CCC12C` (stereo partly drawn), for which the result was inactive.
With `O=C1CCCCC1C1(O)C(=O)Nc2cc(F)ccc21` (stereo not drawn), the EC50 is over 955 µM and the concentration for half-maximal inhibition (IC50) was determined as 178 µM.
For `Cn1c2ccccc2c2cc(-c3ccccc3)c3c(c21)C(=O)c1ccccc1C3=O`, the EC50 was over 13.5 µM and the IC50 is over 13.5 µM.
As for `COP(=O)(OC)/C(=C/c1cn(C(c2ccccc2)(c2ccccc2)c2ccccc2)cn1)NC=O`, the EC50 is over 200 µM and the IC50 is over 200 µM.
Regarding `CC12C(=O)NC(c3ccncc3)(c3ccccc31)C1C(=O)N(c3ccccc3)C(=O)C12` (stereo not drawn), the EC50 is over 200 µM and the IC50 came to 191 µM.
Regarding `Cc1csc2c(=O)n(COCc3ccccc3)c(=O)[nH]c12`, the EC50 is over 200 µM and the IC50 is over 200 µM.
In the case of `CCC(=O)C1(c2cccc(OC)c2)CCN(C)CC1`, the EC50 is over 832 µM and the IC50 was found to be 457 µM.
As for `Cc1cccc2c1c(=O)c1c(O)cc3c(c1n2C)C=CC(C)(C)O3`, the EC50 is 32.4 µM and the IC50 is over 200 µM.
`O=C1CC2c3ccccc3CCC2c2ccccc21` (stereo not drawn): the EC50 is over 200 µM and the IC50 is 7.59 µM.
`NS(=O)(=O)c1ccc(NC2=CC(=O)C(=O)c3ccccc32)cc1`: the EC50 was over 30.2 µM and the 50% inhibitory concentration (IC50) was over 30.2 µM.
For the compound `Cc1ccc(C)c(N2C(=O)C(=O)C(c3nc4ccccc4s3)/C(=N/NC(=O)NN)C2=O)c1` (stereo not drawn), the result was inactive.
For the compound `CN1C(=O)N(C)C2SC(=NCc3ccccc3)NN2C1=O` (stereo not drawn), the EC50 is over 85.1 µM and the half-maximal inhibitory concentration (IC50) worked out at 81.3 µM.
In the case of `CC(=O)N1C(=O)C(=O)c2cc(Cl)ccc21`, the result was inactive.
On to `O=C(Cc1nc(-c2ccccc2)cc(=O)n1-c1ccccc1Cl)c1ccncc1`, for which the EC50 was over 1.35 µM and the IC50 was over 1.35 µM.
Turning to `C[N+](C)(C)CCOP(=O)([O-])OCCNC(=O)c1ccc2ccccc2c1`, the EC50 is over 200 µM and the IC50 is over 200 µM.
Take `Cc1cc2c(Br)cc(Br)c(O)c2nc1C(=O)c1ccccc1`: the EC50 is over 4.79 µM and the 50% inhibitory concentration (IC50) is over 4.79 µM.
As to `COc1ccc(CN2CCCN(Cc3ccc(OC)cc3)S2)cc1`, the EC50 is over 75.9 µM and the IC50 turned out to be 31.6 µM.
Take `O=C1C2C=CC1C1C3OC3C(=O)C21` (stereo not drawn): the EC50 is over 708 µM and the half-maximal inhibitory concentration (IC50) was over 708 µM.
Regarding `CCCNC(=O)c1cc2ccccc2cc1C(=O)OC`, the EC50 is over 5.37 µM and the IC50 was over 5.37 µM.
On to `COc1ccc(/C=C/C(=O)O)cc1OC`, for which the EC50 is over 1200 µM and the IC50 is over 1200 µM.
On to `CC#CCCN(CC#N)Cc1ccccc1`, for which the EC50 is over 200 µM and the IC50 was over 200 µM.
With `OCC(O)C(O)C(O)C(O)c1nn[nH]n1` (stereo not drawn), the result was inactive.
Regarding `C=CC(C)(C)c1c(OC(C)=O)cc2oc3c(OC(C)=O)c(OC(C)=O)cc(CC=C(C)C)c3c(=O)c2c1O`, the EC50 was over 200 µM and the half-maximal inhibitory concentration (IC50) was 120 µM.
Regarding `Cc1cc2c(c3oc(C4(C)OC4C4OC4C)cc(=O)c13)C(=O)c1c(O)c(C3CC(C)(N(C)C)C(O)C(C)O3)cc(C3CC(N(C)C)C(O)C(C)O3)c1C2=O` (stereo not drawn), the EC50 was over 0.002 µM and the IC50 was found to be 9.55e-05 µM.
On the same counts, the results for `S=CN1CCCCC1` are over 200 µM and over 200 µM.
With `CN=C(NC)NCc1ccccc1`, the EC50 was over 200 µM and the IC50 came to 178 µM.
For `Cn1c(=O)cc(/C=C/c2ccnc3ccccc23)c2ccccc21`, the EC50 was over 200 µM and the concentration for half-maximal inhibition (IC50) is over 200 µM.
As for `COc1ccc(/C(Cl)=C(\C=N/O)c2ccc(OC)c(OC)c2)cc1OC`, the EC50 is over 13.8 µM and the half-inhibitory concentration (IC50) was over 13.8 µM.
Take `COc1ccc(NC(=O)C(=O)C2CNC(=O)NC2=O)c(OC)c1` (stereo not drawn): the EC50 is over 209 µM and the 50% inhibitory concentration (IC50) is over 209 µM.
